According to patent publication US20210332139A1, “MODULATION OF LEUKOCYTE ACTIVITY IN TREATMENT OF NEUROINFLAMMATORY DEGENERATIVE DISEASE” (Leuvas Therapeutics, priority 2013, published 2021):

Assays:
[1] = system: human primary PMNs; assay: Static adhesion of human primary PMNs to ICAM-1 with signaling inhibitors; assay type: cell-based; settings: for Adherent hPMNs to ICAM-1, n.t. (resting), Mean / Adherent hPMNs to ICAM-1, fMLP, Mean / Adherent hPMNs to ICAM-1, Aβ oligo, Mean: 30 min; for Adherent hPMNs to ICAM-1, fMLP, Mean: then 50 nM fMLP 1 min; for Adherent hPMNs to ICAM-1, Aβ oligo, Mean: then 10 μM Aβ 1 min; for Blockade of Aβ-induced adhesion of human neutrophils: result in words
Description: As a model system, human primary PMNs were isolated form healthy donors stimulated to very rapid adhesion to purified human ICAM-1, ligand for the β2 integrins LFA-1 and Maci. fMLP (the classical chemoattractant) was the positive control. […] PMNs were treated for 30 min. with different concentrations of inhibitors followed by stimulation for 1 min with 50 nM fMLP or with 10 μM Aβ. The number of adherent cells was quantified by computer-assisted evaluation. Statistical analysis was SD.

[2] = system: human neutrophils; assay: Isoluminol chemiluminescence ROS assay, human neutrophils; assay type: cell-based; settings: result in words
Description: One of the mechanisms of neuronal damage by beta-amyloid in Alzheimer's disease is the generation of reactive oxygen species (ROS). We determined whether Aβ1-42 oligomers induce ROS production in neutrophils by using a chemiluminescence assay.
(§1) Isoluminol-based chemiluminescence assays were performed in HGCa in the presence of horseradish peroxidase (HRP) and isoluminol (both from Sigma-Aldrich) in a temperature-controlled Multilabel Count Victor X5 (Perkin Elmer). Assays were run in dark 96 well plates precoated with 250 μg/ml human fibrinogen in HGCa containing (final concentration): 100 μM isoluminol and 8 U/ml HRP. After addition of 1×10^5 human neutrophils or 7.5×10^5 mouse neutrophils, plates were left at 37° C. for 5-10 min and the reaction started by addition of the stimulus. Light emission was recorded every minute.
(§2) We used the chemotactic peptide fMLP as positive control. […] Data are mean+/−SD for three independent experiments.

[3] = system: neutrophils; assay: Rapid adhesion of neutrophils, soluble versus fibrillary Aβ1-42; assay type: cell-based; settings: 30 μM, mean+/−SD
From the text: Although two-times less efficient than the soluble form, fibrillary Aβ triggered a significant increase of rapid neutrophil adhesion on both ICAM-1 and fibrinogen (Table 8; data are expressed as the mean+/−SD of bound cells in 0.2 mm^2 from three independent experiments made in duplicate).

[4] = system: mouse neutrophils; assay: Isoluminol chemiluminescence ROS assay, mouse neutrophils; assay type: cell-based; settings: mean+/−SD
Description: as §1, §2
Data are mean+/−SD counts per second.

[5] = system: Bend.3 endothelial cell line; assay: Adhesion molecule expression on Bend.3 endothelial cells (immunofluorescence); assay type: cell-based, mouse; set-up: key: −: VCAM-1 and selectins were not expressed (indicated by -, Table 2); constitutively expressed at low levels on endothelial cells (indicated by +/−, some vessels were positive for ICAM-1, Table 2); an increase of ICAM-1 expression (indicated by +, Table 2); settings: Bend.3 cells, 25 U/ml TNFα, 18 h, positive control
Description: We performed in vitro experiments to study the effect of soluble Aβ1-42 oligomers on the endothelial cell line Bend.3, derived from mouse cerebral cortex purchased by ATCC& Cell Biology Collection (CRL-2299TM).
Briefly, Bend.3 were cultured at a concentration of 20×10^3/ml on a glass coverslip in 24-well plates containing DMEM supplemented with 10% Fetal Calf Serum (FCS). Cells were stimulated with 10 μM Aβ 1-42, for 18 h in DMEM with 1% FCS. […] positive control, cells were treated with 25 U/ml of TNFα for 18 h in DMEM with 1% FCS. Bend.3 were rinsed with PBS and fixed with 4% PFA for 10 minutes. Cells were washed with PBS incubated with blocking buffer for 1 h at RT° C. Primary antibodies were diluted in 1% Bovine Serum Albumin (BSA) PBS. Cells were incubated overnight at 4° C. with 50 μg/ml anti-VCAM (hybridoma MK2.7), 10 μg/ml anti-ICAM (hybridoma YN1.7), 0.5 μg/ml anti-CD31 (370700, Invitrogen), 5 μg/ml anti-E-selectin (hybridoma RME-1) and 1.5 μg/ml anti-P-selectin (CD62P, BD Pharmigen). The day after, cells were rinsed 2 times with PBS and then incubated with 7.5 μg/ml biotinylated secondary antibody (rabbit anti-rat, T0226, VectorLab) for 1 h at RT° C. Cells were rinsed 2 times with PBS and incubated with 25 μg/ml Avidin-TexasRed (A2006, Vector Lab) for 1 h at RT° C. in the dark. After rinsing in PBS, cells were incubated with 1 μg/ml Dapi (D9542, Sigma-Aldrich, St. Louis, Mo.), for 5 minutes in the dark. Finally, glass coverslip was transferred on glass slides and mounted with Dako medium (S3023, DAKO NORTH AMERICA, Carpinteria, Calif.). Glass slides were kept at 4° C. in the dark and acquired by LEICA fluorescence microscopy (DM6000B, LEICA, Germany).
We analyzed the expression of VCAM-1, ICAM-1, E- and P-selectin on Bend.3 after Aβ1-42 oligomers stimulation. TNF-α stimulation, which is well known to up-regulate the adhesion molecules expression, was used as positive control. We evaluated a dose-response effect of Aβ1-42 soluble oligomers on Bend.3 cells, ranging from 1 to 10 μM after 6 or 18 hours of treatment. After 18 h of treatment with 10 μM Aβ we observed a significant up-regulation of […] compared to non-stimulated control cells (CTRL) (Table 2). […] ICAM-1 was constitutively expressed at low levels on endothelial cells (indicated by +/−, some vessels were positive for ICAM-1, Table 2), but 18 h treatment with Aβ1-42 led to an increase of ICAM-1 expression (indicated by +, Table 2).

[6] = system: human neutrophils; assay: Rapid human neutrophil adhesion to ICAM-1, inhibition by bocMLF and PTx; assay type: cell-based
Description: It is known that one of the receptors for Aβ is the receptor for fMLP, formylpeptide chemotactic receptor (FPR). To evaluate the contribution of this GPCR receptor on Aβ-dependent neutrophil adhesion, we inhibited its function using boc-MLF, a formyl-peptide chemotactic receptor antagonist. Human neutrophils were incubated for 2 minutes with buffer (control) or with oligomeric Aβ. 0.1 μM fMLP was used as a positive control. Values are expressed as the mean counts of bound cells in 0.2 mm^2 from three independent experiments in duplicate. Error bars represent SD. […] To exclude the possibility that rapid adhesion triggering was a consequence of a generic plasma membrane alteration due to the lipophilic nature of Aβ, we evaluated rapid adhesion in lymphocytes, which are known to lack fMLP receptors.

Compound	Blockade of Aβ-induced adhesion of human neutrophils [1]	Adherent hPMNs to ICAM-1, n.t. (resting), Mean ([1]; inhibitor 100 μM)	Adherent hPMNs to ICAM-1, fMLP, Mean ([1]; inhibitor 100 μM)	Adherent hPMNs to ICAM-1, Aβ oligo, Mean ([1]; inhibitor 100 μM)	also measured
N#C/C(=C/c1ccc(O)c(O)c1)C(=O)NCc1ccccc1 [AG490]	can block				Adherent hPMNs to ICAM-1, n.t. (resting), Mean ([1]; inhibitor 200 μM): 23.2; Adherent hPMNs to ICAM-1, fMLP, Mean ([1]; inhibitor 200 μM): 274.5; Adherent hPMNs to ICAM-1, Aβ oligo, Mean ([1]; inhibitor 200 μM): 258.6
COc1cc(Nc2c(C#N)cnc3cc(OCCCN4CCN(C)CC4)c(OC)cc23)c(Cl)cc1Cl [Bosutinib, bosutinib]		19.3	98.2	95.1	
C[C@@H]1CCN(C(=O)CC#N)C[C@@H]1N(C)c1ncnc2[nH]ccc12 [CP-690550]	can block				Adherent hPMNs to ICAM-1, n.t. (resting), Mean ([1]; inhibitor 200 μM): 22.1; Adherent hPMNs to ICAM-1, fMLP, Mean ([1]; inhibitor 200 μM): 209.6; Adherent hPMNs to ICAM-1, Aβ oligo, Mean ([1]; inhibitor 200 μM): 172.4
c1ccc2c(c1)[I+]c1ccccc1-2 [DPI]					Effect on fMLP and Aβ1-42 ROS responses [2]: suppressed
Cc1nc(Nc2ncc(C(=O)Nc3c(C)cccc3Cl)s2)cc(N2CCN(CCO)CC2)n1 [Dasatinib, dasatinib]					Adherent hPMNs to ICAM-1, n.t. (resting), Mean ([1]; inhibitor 20 μM): 24.9; Adherent hPMNs to ICAM-1, fMLP, Mean ([1]; inhibitor 20 μM): 230.8; Adherent hPMNs to ICAM-1, Aβ oligo, Mean ([1]; inhibitor 20 μM): 227.5
NC(=O)c1cccc(-c2cc(Nc3ccc(OC(F)(F)F)cc3)ncn2)c1 [GNF-2]	can block	25.2	144.2	115.5	
C=CC(=O)N1CCC[C@@H](n2nc(-c3ccc(Oc4ccccc4)cc3)c3c(N)ncnc32)C1 [Ibrutinib, ibrutinib]		21.9	80.0	78.0	
Cc1ccc(NC(=O)c2ccc(CN3CCN(C)CC3)cc2)cc1Nc1nccc(-c2cccnc2)n1 [Imatinib, imatinib]	can block	23.5	124.9	109.3	
Oc1cc(O)cc(/C=C/c2ccc(O)c(O)c2)c1 [Piceatannol, piceatannol]					Adherent hPMNs to ICAM-1, n.t. (resting), Mean ([1]; inhibitor 50 μM): 21.0; Adherent hPMNs to ICAM-1, fMLP, Mean ([1]; inhibitor 50 μM): 218.7; Adherent hPMNs to ICAM-1, Aβ oligo, Mean ([1]; inhibitor 50 μM): 276.1
N#CC[C@H](C1CCCC1)n1cc(-c2ncnc3[nH]ccc23)cn1 [Ruxolitinib, ruxolitinib]		17.0	243.8	244.5	
Cc1cnc(Nc2ccc(OCCN3CCCC3)cc2)nc1Nc1cccc(S(=O)(=O)NC(C)(C)C)c1 [TG101348]	can block	20.1	147.2	134.8	
COc1cc2ncnc(Nc3ccc(O)c(Br)c3)c2cc1OC [WHI-P154]	can block	23.5	207.8	218.8	
Fib Abeta: fibrillary form of Aβ1-42 peptide					Rapid adhesion to Fibrinogen [3]: 171 ± 21.8 bound cells in 0.2 mm^2; Rapid adhesion to ICAM-1 [3]: 457.3 ± 45.54 bound cells in 0.2 mm^2
TNF-a					ROS generation (chemiluminescence) ([4]; 1 min): 38 ± 20 counts per second; ROS generation (chemiluminescence) ([4]; 2 min): 62 ± 21 counts per second; ROS generation (chemiluminescence) ([4]; 3 min): 102 ± 28 counts per second; ROS generation (chemiluminescence) ([4]; 4 min): 136 ± 26 counts per second; ROS generation (chemiluminescence) ([4]; 5 min): 187 ± 14 counts per second; CD31 expression (endothelial cell marker) [5]: +; E-sel expression [5]: +; ICAM-1 expression [5]: +; P-sel expression [5]: +; VCAM-1 expression [5]: +
bocMLF	inhibits	20.1	55.0	81.8	Neutrophil adhesion to ICAM-1 after inhibitor pre-treatment ([6]; buffer (control), no stimulus): 17.3 ± 6.6 bound cells in 0.2 mm^2; Neutrophil adhesion to ICAM-1 after inhibitor pre-treatment ([6]; stimulated 2 minutes with oligomeric Aβ): 74.8 ± 25.5 bound cells in 0.2 mm^2; Neutrophil adhesion to ICAM-1 after inhibitor pre-treatment ([6]; stimulated with 0.1 μM fMLP): 69 ± 26.5 bound cells in 0.2 mm^2
